Measured values taken from paper PMC8909834, “An Orally Bioavailable and Highly Efficacious Inhibitor of CDK9/FLT3 for the Treatment of Acute Myeloid Leukemia” (Cancers, 2022).
Like-named read-outs stand apart in the source and are kept apart here.

How the values were obtained:
[1] = Pharmacokinetics in mice; type: in vivo, BALB/c hairy mice; details: for concentration at 0.1 h: 0.10 h; for half-life: read-out: t½ (converted); for bioavailability: po, read-out: F (oral bioavailability)
Protocol: Pharmacokinetics. The pharmacokinetics of CDDD11-8 was determined in mice after single oral (PO) and intravenous (IV) doses. CDDD11-8 was administered at a dose of 10 or 100 mg/kg PO or 2 mg/kg IV to BALB/c hairy mice (n = 10 per route of administration; both male and female). The IV dose consisted of CDDD11-8 dissolved in 10/90 N-methyl-2-pyrrolidone (NMP)/acetate buffer (pH 4.5), while the PO doses of CDDD11-8 were dissolved in acetate buffer at pH 4.74. At nominal times, up to three blood samples were collected from individual mice at non-consecutive times from the right cheek, left cheek, and heart of an individual mouse. The concentrations in these samples were measured by validated LC-MS/MS methods (limit of quantification = 5 ng/mL). Pharmacokinetic parameters were estimated after fitting compartmental models to the concentration–time data (Phoenix, Certara, NJ, USA). Specifically, a one-compartmental kinetic model with first-order input was used after an oral dose, and a two-compartmental model was fitted to the IV data. Acceptability of models was evaluated from values for Akaike Information Criterion (AIC), Schwarz’s Bayesian Criterion (SIB), and % Coefficient of Variance (CV) for parameters, where lower values were indicative of a better fit. Other considerations were variances in the concentrations of quality control samples and visual inspection of model fit. Oral bioavailability (F) was calculated from values of AUC after PO and IV administration after correcting for the differences in doses.

[2] = Caco-2 permeability; type: in vitro ADME; details: human
[3] = test system: Caco-2 monolayer; assay: Caco-2 permeability; type: in vitro ADME; details: Papp B-A/Papp A-B
[4] = both sexes, BALB/c hairy, mouse, plasma, IV 2 mg/kg, read-out: Plasma Conc.
[5] = both sexes, BALB/c hairy, mouse, plasma, IV 2 mg/kg, ± standard error of the estimate
[6] = both sexes, BALB/c hairy, mouse, plasma, PO 10 mg/kg, read-out: Plasma Conc.
[7] = both sexes, BALB/c hairy, mouse, plasma, PO 100 mg/kg, read-out: Plasma Conc.
[8] = both sexes, BALB/c hairy, mouse, plasma, oral 10 mg/kg, ± standard error of the estimate
[9] = both sexes, BALB/c hairy, mouse, plasma, oral 100 mg/kg, ± standard error of the estimate

For Cc1cnc(N[C@H]2CC[C@H](N)CC2)nc1-c1cnc2ccc(-c3ccccc3)cn12 [CDDD11-8], the “oral bioavailability predicted from hepatic extraction” value [1] was “about 43%”, the “plasma exposure after 100 mg/kg PO relative to 10 mg/kg” value [1] was 19 times and the plasma exposure ([1]; PO 10 mg/kg) was 3.4 µM·h. For the same molecule, the plasma exposure ([1]; PO 100 mg/kg) was 64 µM·h, the “extraction by the liver” value ([1]; blood clearance vs hepatic blood flow 5.4 L/h.kg) was roughly 57% and the clearance ([1]; both sexes, BALB/c hairy, mouse, IV 2 mg/kg, plasma, ± standard error of the estimate, read-out: CL (converted)) was 2.21 L/h/kg. The concentration at 0.03 h ([1]; both sexes, BALB/c hairy, mouse, plasma, IV 2 mg/kg, 0.03 h, read-out: Plasma Conc.) was 2.29 µg/mL, the concentration at 0.07 h ([1]; both sexes, BALB/c hairy, mouse, plasma, IV 2 mg/kg, 0.07 h, read-out: Plasma Conc.) was 2.15 µg/mL and the concentration at 0.1 h [1, 4] was 1.31 µg/mL. For the same molecule, the concentration at 0.17 h ([1]; both sexes, BALB/c hairy, mouse, plasma, IV 2 mg/kg, 0.17 h, read-out: Plasma Conc.) was 1.07 µg/mL, the concentration at 0.2 h ([1]; both sexes, BALB/c hairy, mouse, plasma, IV 2 mg/kg, 0.20 h, read-out: Plasma Conc.) was 1.02 µg/mL and the concentration at 0.3 h ([1]; both sexes, BALB/c hairy, mouse, plasma, IV 2 mg/kg, 0.30 h, read-out: Plasma Conc.) was 0.781 µg/mL. The concentration at 0.53 h ([1]; both sexes, BALB/c hairy, mouse, plasma, IV 2 mg/kg, 0.53 h, read-out: Plasma Conc.) was 0.367 µg/mL, the concentration at 0.68 h ([1]; both sexes, BALB/c hairy, mouse, plasma, IV 2 mg/kg, 0.68 h, read-out: Plasma Conc.) was 0.271 µg/mL and the concentration at 1.4 h ([1]; both sexes, BALB/c hairy, mouse, plasma, IV 2 mg/kg, 1.4 h, read-out: Plasma Conc.) was 0.132 µg/mL. The concentration at 2.1 h ([1]; both sexes, BALB/c hairy, mouse, plasma, IV 2 mg/kg, 2.1 h, read-out: Plasma Conc.) was 0.05 µg/mL, the concentration at 3.4 h ([1]; both sexes, BALB/c hairy, mouse, plasma, IV 2 mg/kg, 3.4 h, read-out: Plasma Conc.) was 0.02 µg/mL and the concentration at 4.1 h ([1]; both sexes, BALB/c hairy, mouse, plasma, IV 2 mg/kg, 4.1 h, read-out: Plasma Conc.) was 0.011 µg/mL. For the same molecule, the concentration at 5.4 h [1, 4] was 0.003 µg/mL, the concentration at 6 h ([1]; both sexes, BALB/c hairy, mouse, plasma, IV 2 mg/kg, 6 h, read-out: Plasma Conc.) was 0.0032 µg/mL and the concentration at 7 h ([1]; both sexes, BALB/c hairy, mouse, plasma, IV 2 mg/kg, 7 h, read-out: Plasma Conc.) was 0.0024 µg/mL. It also gave a concentration at 7.7 h ([1]; both sexes, BALB/c hairy, mouse, plasma, IV 2 mg/kg, 7.7 h, read-out: Plasma Conc.) of 0.0028 µg/mL, a concentration at 8 h ([1]; both sexes, BALB/c hairy, mouse, plasma, IV 2 mg/kg, 8 h, read-out: Plasma Conc.) of 0.0028 µg/mL and a concentration at 8.8 h ([1]; both sexes, BALB/c hairy, mouse, plasma, IV 2 mg/kg, 8.8 h, read-out: Plasma Conc.) of 0.002 µg/mL. It also gave a concentration at 9.5 h ([1]; both sexes, BALB/c hairy, mouse, plasma, IV 2 mg/kg, 9.5 h, read-out: Plasma Conc.) of 0.0017 µg/mL, an AUC [1, 5] of 0.906 ± 0.09 µg·h/mL and a Vd ([1]; both sexes, BALB/c hairy, mouse, plasma, IV 2 mg/kg, ± standard error of the estimate, read-out: Vss) of 1.71 ± 0.246 L/kg. The half-life [1, 5] was 1.8 ± 0.3 h, the concentration at 0.13 h ([1]; both sexes, BALB/c hairy, mouse, plasma, PO 10 mg/kg, 0.13 h, read-out: Plasma Conc.) was 0.14 µg/mL and the concentration at 0.28 h ([1]; both sexes, BALB/c hairy, mouse, plasma, PO 10 mg/kg, 0.28 h, read-out: Plasma Conc.) was 0.3 µg/mL. The concentration at 0.4 h ([1]; both sexes, BALB/c hairy, mouse, plasma, PO 10 mg/kg, 0.40 h, read-out: Plasma Conc.) was 0.139 µg/mL, the concentration at 0.65 h ([1]; both sexes, BALB/c hairy, mouse, plasma, PO 10 mg/kg, 0.65 h, read-out: Plasma Conc.) was 0.389 µg/mL and the concentration at 1.2 h [1, 6] was 0.74 µg/mL. It also gave a concentration at 1.9 h [1, 6] of 0.356 µg/mL, a concentration at 2.6 h [1, 6] of 0.45 µg/mL and a concentration at 3.3 h ([1]; both sexes, BALB/c hairy, mouse, plasma, PO 10 mg/kg, 3.3 h, read-out: Plasma Conc.) of 0.095 µg/mL. It also gave a concentration at 4 h ([1]; both sexes, BALB/c hairy, mouse, plasma, PO 10 mg/kg, 4.0 h, read-out: Plasma Conc.) of 0.169 µg/mL, a concentration at 4.7 h ([1]; both sexes, BALB/c hairy, mouse, plasma, PO 10 mg/kg, 4.7 h, read-out: Plasma Conc.) of 0.034 µg/mL and a concentration at 5.4 h [1, 6] of 0.017 µg/mL. The concentration at 6.2 h ([1]; both sexes, BALB/c hairy, mouse, plasma, PO 10 mg/kg, 6.2 h, read-out: Plasma Conc.) was 0.02 µg/mL, the concentration at 6.8 h ([1]; both sexes, BALB/c hairy, mouse, plasma, PO 10 mg/kg, 6.8 h, read-out: Plasma Conc.) was 0.0034 µg/mL and the concentration at 7.8 h [1, 6] was 0.0016 µg/mL. It also gave a concentration at 8.5 h ([1]; both sexes, BALB/c hairy, mouse, plasma, PO 10 mg/kg, 8.5 h, read-out: Plasma Conc.) of 0.0018 µg/mL, a concentration at 9.7 h ([1]; both sexes, BALB/c hairy, mouse, plasma, PO 10 mg/kg, 9.7 h, read-out: Plasma Conc.) of 0.001 µg/mL and a concentration at 15.8 h ([1]; both sexes, BALB/c hairy, mouse, plasma, PO 10 mg/kg, 15.8 h, read-out: Plasma Conc.) of 0 µg/mL. The concentration at 21 h ([1]; both sexes, BALB/c hairy, mouse, plasma, PO 10 mg/kg, 21.0 h, read-out: Plasma Conc.) was 0 µg/mL, the concentration at 24.6 h [1, 6] was 0 µg/mL and the concentration at 0.1 h [1, 7] was 0.81 µg/mL. It also gave a concentration at 0.38 h ([1]; both sexes, BALB/c hairy, mouse, plasma, PO 100 mg/kg, 0.38 h, read-out: Plasma Conc.) of 0.925 µg/mL, a concentration at 0.73 h ([1]; both sexes, BALB/c hairy, mouse, plasma, PO 100 mg/kg, 0.73 h, read-out: Plasma Conc.) of 2.66 µg/mL and a concentration at 1.2 h [1, 7] of 1.81 µg/mL. It also gave a concentration at 1.9 h [1, 7] of 3.01 µg/mL, a concentration at 2.6 h [1, 7] of 3.68 µg/mL and a concentration at 2.9 h ([1]; both sexes, BALB/c hairy, mouse, plasma, PO 100 mg/kg, 2.9 h, read-out: Plasma Conc.) of 2.48 µg/mL. The concentration at 4.9 h ([1]; both sexes, BALB/c hairy, mouse, plasma, PO 100 mg/kg, 4.9 h, read-out: Plasma Conc.) was 4.83 µg/mL, the concentration at 6.1 h ([1]; both sexes, BALB/c hairy, mouse, plasma, PO 100 mg/kg, 6.1 h, read-out: Plasma Conc.) was 2.16 µg/mL and the concentration at 7 h ([1]; both sexes, BALB/c hairy, mouse, plasma, PO 100 mg/kg, 7.0 h, read-out: Plasma Conc.) was 0.881 µg/mL. It also gave a concentration at 7.8 h [1, 7] of 0.717 µg/mL, a concentration at 8.3 h ([1]; both sexes, BALB/c hairy, mouse, plasma, PO 100 mg/kg, 8.3 h, read-out: Plasma Conc.) of 1.2 µg/mL and a concentration at 8.9 h ([1]; both sexes, BALB/c hairy, mouse, plasma, PO 100 mg/kg, 8.9 h, read-out: Plasma Conc.) of 0.854 µg/mL. It also gave a concentration at 9.6 h ([1]; both sexes, BALB/c hairy, mouse, plasma, PO 100 mg/kg, 9.6 h, read-out: Plasma Conc.) of 0.248 µg/mL, a concentration at 16 h ([1]; both sexes, BALB/c hairy, mouse, plasma, PO 100 mg/kg, 16.0 h, read-out: Plasma Conc.) of 0.077 µg/mL and a concentration at 22.1 h ([1]; both sexes, BALB/c hairy, mouse, plasma, PO 100 mg/kg, 22.1 h, read-out: Plasma Conc.) of 0.153 µg/mL. The concentration at 24.6 h [1, 7] was 0.074 µg/mL, the concentration at 29 h ([1]; both sexes, BALB/c hairy, mouse, plasma, PO 100 mg/kg, 29.0 h, read-out: Plasma Conc.) was 0.062 µg/mL and the concentration at 41.2 h ([1]; both sexes, BALB/c hairy, mouse, plasma, PO 100 mg/kg, 41.2 h, read-out: Plasma Conc.) was 0 µg/mL. It also gave a Vd ([1]; both sexes, BALB/c hairy, mouse, plasma, intravenous, 2 mg/kg, read-out: volume of distribution) of 1.71 L/kg, an AUC [1, 8] of 1.36 ± 0.249 µg·h/mL and a Cmax [1, 8] of 0.496 ± 0.108 µg/mL. For the same molecule, the Tmax [1, 8] was 1 ± 0.1 h, the half-life [1, 8] was 0.68 ± 0.3 h and the AUC [1, 9] was 25.4 µg·h/mL. It also gave a Cmax [1, 9] of 3.6 ± 0.822 µg/mL, a Tmax [1, 9] of 2 ± 0.6 h and a half-life [1, 9] of 6.8 ± 3.7 h. It also gave a bioavailability ([1]; both sexes, BALB/c hairy, mouse, plasma, 10 mg/kg, oral 10 mg/kg) of roughly 30%, a bioavailability ([1]; both sexes, BALB/c hairy, mouse, plasma, 100 mg/kg, oral 100 mg/kg) of 56% and a clearance ([1]; both sexes, BALB/c hairy, mouse, whole blood, intravenous, 2 mg/kg, plasma clearance divided by B/P, read-out: blood clearance (converted)) of 3.1 L/h/kg. For the same molecule, the efflux ratio ([2]; Caco-2, Papp B-A/Papp A-B) was 4.9, the Papp A→B ([2]; Caco-2, A-B) was 60.6 ± 4.9 nm/s and the Papp B→A ([2]; Caco-2, B-A) was 295 ± 84.7 nm/s. The “Caco-2 Permeability Efflux ratio” value [3] was 4.87.
